Values quoted from earlier work in patent US12324861B2, “Beaded nonwoven membrane as a drug delivery system” (CEBIOTEX, S.L., priority 2018, dated 2025).

How the values were obtained:
[1] = nude mice
[2] = systemic administration in patients

SMILES: CCc1c2c(nc3ccc(OC(=O)N4CCC(N5CCCCC5)CC4)cc13)-c1cc3c(c(=O)n1C2)COC(=O)[C@]3(O)CC [Irinotecan]
- conversion to SN-38 [1]: > 70%
- conversion into the active derivative (SN-38) [2]: less than 10%
